Common to all, as to assay type: cell-based
The target in series [1] is 3R Shaker K channel (Drosophila melanogaster, UniProt P08510, A359R/M356R). The series is described as follows: physchem. The settings on record: for pKa: Drosophila melanogaster, from pH dependence of G(V) shift; for G(V) shift: Table 1; for G(V) shift / compound-induced G(V) shift (mean±SEM): pH 7.4, Xenopus oocytes; for Effects on K channel Mean ± SEM: Table 2, K channel expressed in Xenopus oocytes; for maximum shift: dose dependence fit; for relative current amplitude: representative traces at voltage giving 10% of maximum conductance in control. The procedure, abridged: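 Two-electrode voltage clamp at 20-23° C. in oocytes (also CHO-K1 stable line, manual patch clamp) expressing Shaker H4 lacking N-type inactivation; 1K extracellular solution, pH 7.4, holding −80 mV, 100-ms 5-mV steps up to +70 mV. Compound-induced G(V) shift taken at 10% of control Gmax (oocytes) or as V1/2 difference (CHO-K1).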
Sequence of 3R Shaker K channel (P08510 whole entry M356R/A359R): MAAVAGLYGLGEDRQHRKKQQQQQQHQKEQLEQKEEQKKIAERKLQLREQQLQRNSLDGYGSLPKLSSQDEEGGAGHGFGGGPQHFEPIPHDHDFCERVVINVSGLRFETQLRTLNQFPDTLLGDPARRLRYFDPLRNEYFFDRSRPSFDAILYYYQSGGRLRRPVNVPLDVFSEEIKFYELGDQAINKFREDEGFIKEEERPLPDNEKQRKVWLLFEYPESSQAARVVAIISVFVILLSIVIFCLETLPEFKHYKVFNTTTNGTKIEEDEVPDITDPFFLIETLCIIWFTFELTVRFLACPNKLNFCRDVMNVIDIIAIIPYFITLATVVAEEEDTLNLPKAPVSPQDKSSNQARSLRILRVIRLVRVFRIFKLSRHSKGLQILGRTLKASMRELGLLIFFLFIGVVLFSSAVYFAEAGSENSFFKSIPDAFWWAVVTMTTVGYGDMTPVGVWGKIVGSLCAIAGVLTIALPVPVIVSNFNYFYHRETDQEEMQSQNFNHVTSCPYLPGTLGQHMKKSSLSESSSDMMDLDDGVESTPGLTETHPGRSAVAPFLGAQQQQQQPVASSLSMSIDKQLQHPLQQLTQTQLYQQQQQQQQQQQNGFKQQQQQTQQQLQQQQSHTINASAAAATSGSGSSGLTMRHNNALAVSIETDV

Series [2] addresses WT Shaker K channel (Drosophila melanogaster, UniProt P08510, DEL6-46). The series is described as follows: physchem. The settings on record: for pKa: Drosophila melanogaster, from pH dependence of G(V) shift. The text has this:
A Shaker K channel is a Kv channel from the fruit fly Drosophila melanogaster. It is homologous to the human Kv1-type ion channels.
All animal experiments were approved by the local Animal Care and Use Committee and followed international guidelines. A modified Shaker H4 channel^30, with removed N-type inactivation (ShH4IR)^31, here called the wild type (WT) channel, was expressed in oocytes. In addition, a modified 3R Shaker K channel where two introduced positive charged arginines (M356R and A359R) in addition to one native arginine (R362) makes the channel more sensitive to DHA^16, was expressed in oocytes and in a CHO—K1 stable cell line.
African clawed frogs (Xenopus laevis) were anesthetized with 1.4 g/L ethyl 3-aminobenzoate methanesulfonate salt (tricaine). After an incision through the abdomen a batch of oocytes were removed. Clusters of oocytes were separated by incubation for ˜1 h in a Ca-free O—R2 solution (in mM: 82.5 NaCl, 2 KCl, 5 HEPES, and 1 MgCl2; pH adjusted to 7.4 by NaOH) containing Liberase Blendzyme. The oocytes were then incubated at 8° C. in a modified Barth's solution (MBS; in mM: 88 NaCl, 1 KCl, 2.4 NaHCO3, 15 HEPES, 0.33 Ca(NO3)2, 0.41 CaCl2, and 0.82 MgSO4; pH adjusted to 7.6 by NaOH) supplemented with penicillin (25 U/ml), streptomycin (25 μg/ml), and sodium pyruvate (2.5 mM) 2-24 hours before injection. Fifty nl of cRNA (50 pg) were injected into each oocyte using a Nanoject injector (Drummond Scientific, Broomall, Pa.). Injected oocytes were kept at 8° C. in MBS until one day before electrophysiological recordings, when they were incubated at 16° C. All chemicals were supplied from Sigma-Aldrich (Stockholm, Sweden) if not stated otherwise.
All manual electrophysiological recordings were performed at room temperature (20-23° C.), using a GeneClamp 500B amplifier (for oocytes) or a Axopatch 200B amplifier (for manual patch clamp of CHO—K1 cells and DRG neurons) and a Digidata 1440A digitizer and pClamp 10 software (all from Molecular Devices, Inc., Sunnyvale, Calif., USA). Compounds were dissolved to 100 mM in 99.5% EtOH and stored at −20° C. Compounds were diluted in extracellular solution to the desired test concentration.
The oocyte was placed in a bath surrounded by 1K extracellular solution that contained (in mM): 88 NaCl, 1 KCl, 15 HEPES, 0.4 CaCl2, and 0.8 MgCl2, pH adjusted to 7.4 by NaOH (reaching a sodium concentration of ˜100 mM). Control solution was added to the bath with a gravity driven perfusion system. Compound solution was added to the bath manually with a syringe. Two glass microelectrodes were inserted into the oocyte using micromanipulators. […] All channels were closed when the potential was clamped to −80 mV and this voltage was set as the holding potential. Currents were evoked from the holding potential of −80 mV by 100-ms long, 5-mV steps ranging from −80 up to +50 mV (WT) and +70 mV (3R).
Conductance GK(V) was calculated as GK(V)=[…], (Eq. 1) where IK is the average current from the steady-state phase at the end of each 100-ms pulse, V is the membrane voltage, and Vrev is the reversal potential for K^+, (set to −80 mV for the oocytes, and calculated to be −89 mV for the CHO—K1 cells).
G(V)=A/(1+exp((V1/2−V)/s))^n (Eq. 2) where A is amplitude of the curve, V is the absolute membrane voltage, V1/2 is the midpoint, s is the slope and n is an exponent set to 4^17. The compound-induced G(V) shift was determined at the 10% level of the maximum conductance in control solution^17. The compound-induced G(V) shift in CHO—K1 was quantified by subtracting the control V1/2 from the compound V1/2 when n was set to 1.
Data for concentration and pH dependent G(V) shifts (ΔV) in oocytes were fit with a dose-response equation ΔV=ΔVmax/(1+c1/2/c), (Eq. 3) where Δvmax is the maximal shift, c1/2 is half maximal effective concentration/pKa value and c is the concentration.

In series [3] the test system is HL-1 cells. Description: Membrane potential and firing of spontaneously beating HL-1 cells, whole-cell current clamp. The settings on record: 10 uM. The protocol:
All conventional chemicals were purchased from Sigma-Aldrich (Stockholm, Sweden). The DHAA derivatives were diluted in ethanol in a 100 mM stock solution. The stock solutions were stored at −20 t for further use.
The cell culture was done according to a previous study (Claycomb et al., Proceedings of the National Academy of Sciences of the United States of America 1998; 95:2979-2984). In brief, cells were grown on gelating fibronectin coated T75 flasks. They were maintained in Claycomb Medium which was supplemented with 10% fetal bovine serum, 2 mM L-glutamine, 0.1 mM noradrenaline, and 100 U/ml, 100 μg/ml penicillin-streptomycin. Enzymatic dissociation with 0.05% trypsin-EDTA was done after full confluence. Isolated cells were plated on fibronectin-gelatin coated plastic coverslips and used for recording.
Whole-cell current-clamp recordings were done on confluent cells at 35±1° C., using an Axopatch 200B amplifier (Molecular Devices, Sunnyvale, Calif.). Patch pipettes were fabricated from borosilicate capillary glass on a vertical pipette puller and had resistances of 3-5 MO. Data were stored on a computer through Digidata 1440A interface (Molecular Devices), and was analyzed with pCLAMP software (version 10.1, Molecular Devices). The bath solution contained the following (in mM): 140 NaCl, 5.4 KCl, 1 MgCl2, 1.8 CaCl2, 10 HEPES, and 10 glucose (pH adjusted to 7.4 with NaOH). The micropipettes were filled with a solution containing (in mM): 130 K-gluconate, 9 KCl, 8 NaCl, 1 MgCl2, 10 EGTA, 10 HEPES, and 3 Na2ATP (pH adjusted to 7.3 with KOH).

Read-outs that look alike come from different tables or passages of the source.

Sequence of WT Shaker K channel (P08510 other isoform, or with tags, fused parts or gaps DEL6-46): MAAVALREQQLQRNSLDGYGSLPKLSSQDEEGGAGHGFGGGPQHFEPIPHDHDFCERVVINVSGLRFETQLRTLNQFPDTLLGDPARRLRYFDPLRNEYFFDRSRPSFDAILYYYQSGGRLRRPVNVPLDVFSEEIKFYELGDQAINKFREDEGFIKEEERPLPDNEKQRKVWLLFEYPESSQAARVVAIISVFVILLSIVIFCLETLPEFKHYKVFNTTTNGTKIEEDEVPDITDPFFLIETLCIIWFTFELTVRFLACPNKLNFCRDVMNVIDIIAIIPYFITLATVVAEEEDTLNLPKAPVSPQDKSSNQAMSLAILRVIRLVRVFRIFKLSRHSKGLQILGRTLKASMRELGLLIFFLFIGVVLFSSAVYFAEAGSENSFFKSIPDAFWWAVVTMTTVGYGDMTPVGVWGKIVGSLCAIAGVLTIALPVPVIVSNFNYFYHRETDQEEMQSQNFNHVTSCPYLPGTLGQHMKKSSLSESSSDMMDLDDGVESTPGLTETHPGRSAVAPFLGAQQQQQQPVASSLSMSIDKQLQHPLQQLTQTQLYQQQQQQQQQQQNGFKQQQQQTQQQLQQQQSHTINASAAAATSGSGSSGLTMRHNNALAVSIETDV

For the molecule `CO/N=C1\CC2[C@](C)(C(=O)O)CCC[C@]2(C)c2cc(Br)c(C(C)C)cc21` (stereo partly drawn) [Wu32, (1R,4aS,E)-6-bromo-7-isopropyl-9-(methoxyimino)-1,4a-dimethyl-1,2,3,4,4a,9,10,10a-octahydrophenanthrene-1-carboxylic acid], in series [1] (100 μM, pH 7.4), the “increase in G(V) shift relative to DHAA (ΔVc7, ΔVhalo, ΔVtot)” value was −18.5 mV and the relative current amplitude amounted to 10.8 times. Moreover, in series [1] (100 μM), the pKa stood at 5.8 and the “G(V) shift” value is on record as −30.0 mV. Also, the “Effects on K channel Mean ± SEM” value in series [1] was −30.0 ± 1.8 mV. Moreover, in series [1] (Wu32 versus Wu36, 100 μM, pH 7.4), the “factor of increase of the G(V) shift by bromination of C12 with methyloxime at C7” value worked out at 2.5. Also, the Kd in series [1] (c1/2 of dose dependence of G(V) shift (Eq. 3), pH 7.4, read-out: Kd-value) is 37 µM. The maximum shift in series [1] (pH 7.4) is given as −41 mV. In addition, the “shift more than expected from simple addition” value in series [1] (methyloxime at C7 plus Br-12, 100 μM, pH 7.4) was −15.5 mV. Also, in series [2] (100 μM), the pKa came to 6.1. In series [3], the “Effects on HL-1 cells Mean (membrane potential)” value (shortened to “Effects on HL-1 cells Mean”) was −3.6 mV and the “effect on membrane potential of HL-1 cells” value is “intermediate effect on the HL-1 cells”.
In the case of `CC(C)c1ccc2c(c1)C(C(=O)O)CC1[C@](C)(C(=O)O)CCC[C@]21C` (stereo partly drawn) [Wu35], in series [1] (100 μM), the “compound-induced G(V) shift (mean±SEM)” value is “no effect on the K channel” and the “G(V) shift” value is −1.3 mV. Moreover, the “effect on G(V) shift / current compared with DHAA” value in series [1] (C7-modified DHAA, 100 μM, pH 7.4) is “clearly reduced the current increase”. In series [1], the “Effects on K channel Mean ± SEM” value is −1.2 ± 0.6 mV. Further, the relative current amplitude in series [1] (100 μM, pH 7.4) amounted to 1.3 times. Moreover, in series [3], the “Effects on HL-1 cells Mean” value was 1.5 mV and the “effect on membrane potential of HL-1 cells” value was “no effect on the HL-1 cells”.
As for `C[C@@]1(C(=O)O)CCC[C@]2(C)c3cc(Cl)c(Cl)c(Cl)c3CCC12` (stereo partly drawn) [Wu50, (1R,4aS)-6,7,8-trichloro-1,4a-dimethyl-1,2,3,4,4a,9,10,10a-octahydrophenanthrene-1-carboxylic acid], in series [1], the equilibrium dissociation constant (Kd) was 37 µM and the “Effects on K channel Mean ± SEM” value is −31.6 ± 2.1 mV. Moreover, in series [1] (1 μM, pH 7.4), the “ΔG(V) at 1 μM” value is given as −1.3±0.3 mV. In series [1] (100 μM), the “compound-induced G(V) shift (mean±SEM)” value is −31.6±2.1 mV, the pKa amounted to 6.5 and the “G(V) shift” value is −31.6 mV. Besides, in series [1] (100 μM, pH 7.4, same cells as representative traces), the “ΔG(V) of representative G(V) curves (single examples)” value is given as −32.6 mV. Besides, the maximum shift in series [1] (pH 7.4) was −46 mV. For the same molecule, the “G(V) shift for WT relative to 100 μM DHAA” value in series [2] (100 μM, pH 7.4) is given as about 10 times. Moreover, in series [2] (100 μM, pH 7.4, Xenopus oocytes), the “G(V) shift for WT” value was −21.2 mV. Besides, the pKa in series [2] (100 μM) was determined as 6.8. Also, the “current amplitude increase compared to DHAA” value in series [2] (WT channel at pH 7.4) worked out at 56 times. In addition, in series [2] (WT, 100 μM, pH 7.4), the “current amplitude increase compared to DHA (A=exp(−ΔV/4.7))” value came out at 25 times. In series [3], the “Effects on HL-1 cells Mean” value is listed as −5.5 mV.

A word on the pKa: it is the negative logarithm of the acid dissociation constant. A word on the Kd: it is the constant that tells how readily two partners part at equilibrium.

Values taken from patent US20180193294A1, “Dehydroabietic acid (DHAA) derivatives for use as ion channel openers” (priority 2015, published 2018).
